From patent US11098058B2, “Bicyclic ketone compounds and methods of use thereof” (Genentech, Inc., priority 2017, dated 2021)
pKi: −log10 of the molar value.

Molecular target: human RIP1 kinase domain (2-375) (Homo sapiens (Human), UniProt Q13546)
Assay: biochemical
Settings: 50 nM enzyme, 50 μM ATP, 2 hours incubation
[1] = tight-binding apparent inhibition constant (Ki app, Morrison equation)
[2] = RIP1 kinase inhibition, tight-binding apparent Ki

human RIP1 kinase domain (2-375), sequence (Q13546 2-375): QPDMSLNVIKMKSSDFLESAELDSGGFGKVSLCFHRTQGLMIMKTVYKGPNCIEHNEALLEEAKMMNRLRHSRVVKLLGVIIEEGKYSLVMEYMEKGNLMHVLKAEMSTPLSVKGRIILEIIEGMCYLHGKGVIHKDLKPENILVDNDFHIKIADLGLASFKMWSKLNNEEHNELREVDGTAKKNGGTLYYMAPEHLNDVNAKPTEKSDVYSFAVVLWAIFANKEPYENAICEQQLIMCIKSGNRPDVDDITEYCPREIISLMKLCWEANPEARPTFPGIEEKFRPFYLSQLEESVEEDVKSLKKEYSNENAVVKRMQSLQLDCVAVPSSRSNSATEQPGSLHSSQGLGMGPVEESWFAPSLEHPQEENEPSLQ

Row | Compound | pKi [1] | pKi [2]
1 | CC1(C(=O)c2nc3n(n2)[C@H](c2ccccc2)C[C@@H]3F)CC1 (racemic) [Example 26, (rac-(5S,7S)-7-fluoro-5-phenyl-6,7-dihydro-5H-pyrrolo[1,2-b][1,2,4]triazol-2-yl)-(1-methylcyclopropyl)methanone] | 7.42 | 
2 | Cn1cc(C(=O)c2nc3n(n2)[C@@H](c2ccccc2)C[C@H]3F)cn1 (stereo in doubt) [Example 48, (1-methylpyrazol-4-yl)-[rac-(5R,7R)-7-fluoro-5-phenyl-6,7-dihydro-5H-pyrrolo[1,2-b][1,2,4]triazol-2-yl]methanone] | 6.38 | 
3 | C[C@H]1C[C@@H]1C(=O)c1nc2n(n1)[C@H](c1ccccc1)C[C@@H]2F (mixture of isomers) [Example 75, [(5S,7S)-7-fluoro-5-phenyl-6,7-dihydro-5H-pyrrolo[1,2-b][1,2,4]triazol-2-yl]-[rac-(1S,2S)-2-methylcyclopropyl]methanone] |  | 8.43
4 | CC(C)(O)C(=O)c1nc2n(n1)[C@@H](c1ccccc1)C[C@H]2F (stereo in doubt) [Example 5, 2-hydroxy-2-methyl-1-[rac-(5R,7R)-7-fluoro-5-phenyl-6,7-dihydro-5H-pyrrolo[1,2-b][1,2,4]triazol-2-yl]propan-1-one] | 7.64 | 
5 | CC(C)(C)C(=O)c1nc2n(n1)[C@@H](c1ccccc1)C[C@H]2F (stereo in doubt) [Example 38, 2,2-dimethyl-1-[rac-(5R,7R)-7-fluoro-5-phenyl-6,7-dihydro-5H-pyrrolo[1,2-b][1,2,4]triazol-2-yl]propan-1-one] | 8.38 | 
6 | CC(C)(C#N)C(=O)c1nc2n(n1)[C@H](c1ccccc1)C[C@@H]2F (racemic) [Example 22, 3-(rac-(5S,7S)-7-fluoro-5-phenyl-6,7-dihydro-5H-pyrrolo[1,2-b][1,2,4]triazol-2-yl)-2,2-dimethyl-3-oxo-propanenitrile] | 7.48 | 
7 | CC1(C(=O)c2nc3n(n2)[C@H](c2ccccc2)C[C@@H]3F)CCCO1 (mixture of isomers) [Example 129, (2-methyltetrahydrofuran-2-yl)-[rac-(5S,7S)-7-fluoro-5-phenyl-6,7-dihydro-5H-pyrrolo[1,2-b][1,2,4]triazol-2-yl]methanone] |  | 7.33
8 | O=C(c1nc2n(n1)[C@H](c1ccccc1)C[C@@H]2F)C1C2COCC21 (mixture of isomers) [Example 56, 3-oxabicyclo[3.1.0]hexan-6-yl-[rac-(5S,7S)-7-fluoro-5-phenyl-6,7-dihydro-5H-pyrrolo[1,2-b][1,2,4]triazol-2-yl]methanone] | 6.66 | 
9 | CC1(C(=O)c2nc3n(n2)[C@H](c2ccccc2)C[C@@H]3F)COC1 (racemic) [Example 15, (rac-(5S,7S)-7-fluoro-5-phenyl-6,7-dihydro-5H-pyrrolo[1,2-b][1,2,4]triazol-2-yl)-(3-methyloxetan-3-yl)methanone] | 7.52 | 
10 | CC(=O)c1nc2n(n1)[C@@H](c1ccccc1)C[C@H]2F (racemic) [Example 50, 1-[rac-(5R,7R)-7-fluoro-5-phenyl-6,7-dihydro-5H-pyrrolo[1,2-b][1,2,4]triazol-2-yl]ethanone] | 7.12 | 
11 | O=C(c1ccccc1)c1nc2n(n1)[C@H](c1ccccc1)C[C@@H]2F (racemic) [Example 12, phenyl-[rac-(5S,7S)-7-fluoro-5-phenyl-6,7-dihydro-5H-pyrrolo[1,2-b][1,2,4]triazol-2-yl]methanone] | 7.67 | 
12 | O=C(c1nc2n(n1)[C@H](c1ccccc1)C[C@@H]2F)C1CCOCC1 (racemic) [Example 126, [rac-(5S,7S)-7-fluoro-5-phenyl-6,7-dihydro-5H-pyrrolo[1,2-b][1,2,4]triazol-2-yl]-tetrahydropyran-4-yl-methanone] |  | 7.24
13 | O=C(c1nc2n(n1)[C@H](c1ccccc1)C[C@@H]2F)[C@H]1CCCN1 (racemic) [Example 128, [rac-(5S,7S)-7-fluoro-5-phenyl-6,7-dihydro-5H-pyrrolo[1,2-b][1,2,4]triazol-2-yl]-[rac-(2R)-pyrrolidin-2-yl]methanone] |  | 6.19
